Measured values: paper PMC7278776, “Multidrug Resistance Modulation Activity of Silybin Derivatives and Their Anti-Inflammatory Potential” (Antioxidants, 2020)

Experiments:
[1] = tested on: ABCG1; test: ABCG1 mRNA expression (real-time PCR); format: cell-based, human; conditions: A2780/DOX, 10 µM combined with doxorubicin at IC25, 48 h
Experimental: (§1) The A2780/DOX cell line was seeded into 5 cm Petri dishes with DMEM medium at 1 × 10^5 cell/mL. After 24 h, the dishes were washed with PBS and new DMEM medium supplemented with doxorubicin (at concentration equal to IC25) and samples (10 µM) were added. After 48 h of treatment, the cells were washed with PBS and harvested using the standard trypsin-EDTA procedure. The harvested cells were centrifuged (3200× g; 10 min, 4 °C). The supernatant was discarded, and the pellets were washed with 1.5 mL of cooled PBS (5400× g; 10 min, 4 °C). The washing step was repeated with 1 mL of PBS and the cells were centrifuged again (10,000× g; 3 min, 4 °C). Afterwards, the pellets were resuspended in 1 mL of Trizol (Invitrogen, Carlsbad, CA, USA) and transferred into pre-cooled RNase-free microfuge tubes. The samples were stored at −80 °C.
(§2) A Quant-iT RiboGreen RNA Assay Kit (Invitrogen) was used to determine the RNA concentration using the Infinite M200 plate reader (Tecan, Männedor, Switzerland). The cDNA was prepared from 0.5 µg of total RNA using a RevertAid First Strand Synthesis cDNA Kit (MBI Fermentas, Vilnius, Lithuania). The amplification of the ubiquitin C gene fragment was used to determine the quality of cDNA.
(§3) The experiment was performed using the ViiA7 Real-Time polymerase chain reaction (PCR) System (Life Technologies, Camarillo, CA, USA) with a 384-well block. Before quantitative real-time PCR, the master mix was prepared by mixing 2 µL of 8 × diluted cDNA, 1.75 µL of RNase free water, 1 µL of 5 × HotFIREPol Probe quantitative PCR Mix Plus (Solis Biodyne, Tartu, Estonia) and 0.25 µL of specific 20 × TaqMan Gene Expression Assay (Life Technologies), giving 5 µL of final reaction volume. Cycling parameters were: initial hold at 50 °C for 2 min and denaturation at 95 °C for 10 min, followed by 45 cycles consisting of denaturation at 95 °C for 15 s and annealing/extension at 60 °C for 1 min. After each extension phase, the fluorescence values were acquired. Duplicate samples were used for measurement and samples with a standard deviation of duplicates > 1.0 cycle threshold (Ct) were re-analyzed. The real time PCR procedure was maintained according to MIQE (Minimum information for publication of quantitative real-time PCR experiments) guidelines. The software REST 2009 (Qiagen, Hilden, Germany) served to compare relative transcript levels of genes in the cell line.

[2] = Viability of A2780/DOX cells (resazurin); conditions: human
Experimental: To determine the NO production, the medium was mixed with Griess reagent (0.04 g/mL, prepared in deionized water) in a 1:1 ratio. After 15 min, absorbance was recorded at 540 nm. To determine cell viability, the resazurin solution (0.03 mg/mL in PBS) was added to the cells. After 2 h of incubation, fluorescence was recorded (560/590 nm, ex./em.).
A multidrug resistant ovarian sub-line resistant to doxorubicin (A2780/DOX, Sigma-Aldrich) was cultivated in DMEM medium with 10% FBS and 1 × antibiotic antimycotic solution. Every other passage, doxorubicin at the final concentration of 0.1 µM was added to the culture medium to maintain the resistance of the cell line. To perform experiments, the cells were seeded at 1 × 10^5 cell/mL into the wells of a 96-well plate and incubated for 24 h. Afterwards, the cells were washed with PBS and fresh DMEM medium with tested compounds at 10, 20 and 30 µM were added to each well, except for the control wells. Subsequently, the cells were exposed to increasing concentrations of doxorubicin (0.6–20 µM) for 72 h. After incubation, the resazurin assay was performed as described above. The IC50 of doxorubicin was calculated for both the control and the samples and the fold change was counted up. […] The fold change lower than 1 means an antagonistic effect. (1) FOLD CHANGE=IC50 value of DOX cells treated with chemotherapeutic /IC50 value of DOX cells treated with chemotherapeutic and compound

[3] = tested on: ABCB2; test: ABCB2 mRNA expression (real-time PCR); format: cell-based, human; conditions: A2780/DOX, 10 µM, 48 h, without doxorubicin
[4] = tested on: ABCF2; test: ABCF2 mRNA expression (real-time PCR); format: cell-based, human; conditions: A2780/DOX, 10 µM, 48 h, without doxorubicin
[5] = tested on: ABCB9; test: ABCB9 mRNA expression (real-time PCR); format: cell-based, human; conditions: A2780/DOX, 10 µM, 48 h, without doxorubicin
[6] = tested on: ABCF2; test: ABCF2 mRNA expression (real-time PCR); format: cell-based, human; conditions: A2780/DOX, 10 µM combined with doxorubicin at IC25, 48 h
Experimental: as §1, §2, §3

[7] = tested on: ABCA2; test: ABCA2 mRNA expression (real-time PCR); format: cell-based, human; conditions: 10 µM, 48 h, without doxorubicin; for ABCA2 Expression Difference / ABCA2 Treated vs. Untreated: A2780/DOX
[8] = tested on: ABCA3; test: ABCA3 mRNA expression (real-time PCR); format: cell-based, human; conditions: A2780/DOX, 10 µM combined with doxorubicin at IC25, 48 h
Experimental: as §1, §2, §3

[9] = tested on: ABCF1; test: ABCF1 mRNA expression (real-time PCR); format: cell-based, human; conditions: A2780/DOX
Experimental: as §1, §2, §3

[10] = tested on: ABCE1; test: ABCE1 mRNA expression (real-time PCR); format: cell-based, human; conditions: A2780/DOX, 10 µM, 48 h, without doxorubicin
Experimental: as §1, §2, §3

[11] = tested on: ABCC5; test: ABCC5 mRNA expression (real-time PCR); format: cell-based, human; conditions: A2780/DOX, 10 µM, 48 h, without doxorubicin
[12] = tested on: ABCB7; test: ABCB7 mRNA expression (real-time PCR); format: cell-based, human; conditions: A2780/DOX, 10 µM, 48 h, without doxorubicin
Experimental: as §1, with “After 24 h, the dishes were washed with PBS and new DMEM medium supplemented with doxorubicin (at concentration equal to IC25) and samples (10 µM) were added.” left out
A Quant-iT RiboGreen RNA Assay Kit (Invitrogen) was used to determine the RNA concentration using the Infinite M200 plate reader (Tecan, Männedor, Switzerland). […]
The experiment was performed using the ViiA7 Real-Time polymerase chain reaction (PCR) System (Life Technologies, Camarillo, CA, USA) with a 384-well block. Before quantitative real-time PCR, the master mix was prepared by mixing 2 µL of 8 × diluted cDNA, 1.75 µL of RNase free water, 1 µL of 5 × HotFIREPol Probe quantitative PCR Mix Plus (Solis Biodyne, Tartu, Estonia) and 0.25 µL of specific 20 × TaqMan Gene Expression Assay (Life Technologies), giving 5 µL of final reaction volume. […] After each extension phase, the fluorescence values were acquired. […]

[13] = 10 µM combined with doxorubicin at IC25, 48 h
[14] = 10 µM, 48 h, without doxorubicin

Compound | ABCG1 Expression Difference [1] | viability at 50 µM [2] | ABCB2 Expression Difference [3] | ABCF2 Expression Difference [4] | ABCB9 Expression Difference [5] | ABCF2 Expression Difference [6] | downregulation of ABCA2 expression [7] | ABCA2 Expression Difference [7] | ABCA2 Treated vs. Untreated [7] | ABCA3 Expression Difference [8] | ABCF1 Expression Difference [9, 13] | ABCE1 Expression Difference [10] | ABCC5 Expression Difference [11] | viability at 20 µM [2] | ABCB7 Expression Difference [12] | ABCF1 Expression Difference [9, 14] | ABCF1 Treated vs. Untreated [9, 14]
COc1cc([C@H]2Oc3cc(-c4oc5cc(O)cc(O)c5c(=O)c4O)ccc3O[C@@H]2CO)ccc1O [Dehydrosilybin A, 2,3-dehydrosilybin A] | 2.714 | < 80% | 1.905 | 1.198 | 1.317 | 1.044 | 22% | 0.778 | DOWN | 1.042 | 0.920 | – | – | – | – | – | –
COc1cc(C2Oc3cc(-c4oc5cc(O)cc(O)c5c(=O)c4O)ccc3OC2CO)ccc1O (stereo not shown) [Dehydrosilybin AB, 2,3-dehydrosilybin] | 1.826 | – | 2.341 | 1.418 | 1.669 | 1.343 | – | – | – | 0.943 | 0.923 | 1.408 | 1.519 | < 80% | 1.463 | 0.322 | DOWN
COc1cc([C@@H]2Oc3cc(-c4oc5cc(O)cc(O)c5c(=O)c4O)ccc3O[C@H]2CO)ccc1O [Dehydrosilybin B, 2,3-dehydrosilybin B] | 2.931 | – | 1.625 | 1.334 | – | 1.226 | 11% | 0.891 | DOWN | 1.060 | 0.784 | – | – | < 80% | – | – | –
